Reference: patent US20150147403A1, “DERMATOLOGICAL COMPOSITION COMPRISING OLEOSOMES AND RETINOIDS, PROCESS FOR PREPARING THE SAME AND USE THEREOF” (GALDERMA RESEARCH & DEVELOPMENT, priority 2012, published 2015)

Key:
Format in all cases: physicochemical
[1] = Stability study on compositions 1′ and 2: assay of compound A by HPLC; conditions: under all the temperature conditions (4° C., RT, 40° C.); dissolved in the aqueous phase or in the oily liquid globules
Procedure: Composition 1′ of Example 2 and composition 2 of Example 3 were placed under various stability conditions: 4° C., room temperature and 40° C., for 3 months.
Compound A was assayed by HPLC. The results are expressed in mg/g.

[2] = Solubility of compound A in various oily and aqueous solvents
Excerpt: (§1) The object of this preformulation study is to identify lipophilic and hydrophilic solvents in which compound A is soluble, and in which it is chemically stable.

[3] = Stability of compound A in solvents (HPLC-UV); conditions: RT / 40° C.
Procedure: as §1
The stability of the active agent was evaluated by liquid chromatography coupled to a UV detector (HPLC-UV).

[4] = in Caprylic/capric acid triglycerides (Miglyol 812N)
[5] = in PPG-15 stearyl ether (Arlamol E PSE15)
[6] = in Propylene glycol / absolute ethanol (20/80)

CC(C)(C)c1cc(-c2cc(-c3ccc(C(=O)O)cc3)ccc2OCCO)ccc1N1CCCC1 [Compound A, 3″-tert-Butyl-4′-(2-hydroxyethoxy)-4″-pyrrolidin-1-yl-[1,1′;3′,1″]-terphenyl-4-carboxylic acid]
Chemical stability of compound A in the compositions [1]: 3 months | Maximum solubility (% m/m) ([2]; in Absolute ethanol): 0.92 % m/m | Maximum solubility (% m/m) [2, 4]: 0.019 % m/m | Maximum solubility (% m/m) [2, 5]: 0.292 % m/m | Maximum solubility (% m/m) ([2]; in Phenoxyethanol): 1.957 % m/m | Maximum solubility (% m/m) ([2]; in Propylene glycol): 0.11 % m/m | Maximum solubility (% m/m) [2, 6]: 1.08 % m/m | Stability ([3]; in Absolute ethanol): 3 months RT / 40 °C | Stability [3, 4]: 6 months RT / 40 °C | Stability [3, 5]: 6 months RT / 40 °C | Stability ([3]; in Phenoxyethanol): 6 months RT / 40 °C | Stability [3, 6]: 6 months RT / 40 °C | Stability ([3]; in Propylene glycol): 3 months RT / 40 °C
